From ChEMBL document CHEMBL3886469, “Pyrrolo pyrimidine derivatives” (2016)

Experiments:
[1] = molecular target: T1, Tyrosine-protein kinase BTK (Homo sapiens, UniProt Q06187); test: Biochemical Enzyme Assay: The inhibitory activity of the present compounds against Btk was assessed in a biochemical enzyme assay. Assay plates in 384 well format were prepared with 8-point serial dilutions for the test compounds on a Thermo CatX workstation equipped with a Innovadyne Nanodrop Express. The assay plates were prepared by addition of 50 nl per well of compound solution in 90% DMSO. The kinase reactions were started by stepwise addition of 4.5 ul per well of peptide/ATP-solution (4 uM FITC-Ahx-[…]-NH2, 164 uM ATP) in kinase buffer (50 mM HEPES, pH 7.5, 1 mM DTT, 0.02% Tween20, 0.02% BSA, 0.6% DMSO, 10 mM beta-glycerophosphate, and 10 uM sodium orthovanadate, 18 mM MgCl2, 1 mM MnCl2) and 4.5 ul per well of enzyme solution (6.4 nM full-length human recombinant BTK) in kinase buffer. Kinase reactions were incubated at 30° C. for 60 minutes and subsequently terminated by addition of 16 ul per well of stop solution (100 mM HEPES pH 7.5, 5% DMSO, 0.1% Caliper coating reagent, 10 mM EDTA, and 0.015% Brij35). Kinase reactions were analyzed on a Caliper LC3000 workstation by separating phosphorylated and unphosphorylated peptides and kinase activities were calculated from the amounts of newly formed phospho-peptide. Inhibition data were calculated by comparison to control reactions without enzyme (100% inhibition) and without inhibitors (0% inhibition).
[2] = molecular target: T1, Tyrosine-protein kinase BTK; test: Cellular Assay: Alternatively, the present compounds might also be assessed for their capacity to inhibit Btk-dependent FcG receptor-induced IL-8 secretion in human cells. The human myeloid leukemia THP1 cell line (ATCC TIB202) was grown in RPMI 1640 medium supplemented with 10% FCS and 15 nM 1, 25-dihydroxy Vitamin D3 during 4 days before use to induced myeloid differentiation. A sufficient number of tissue-culture grade 384-well plates was coated with human IgG of unknown specificity by incubating overnight at 4° C. with 40 ul/well of a 50 ug/ml IgG solution in PBS. On the day of the experiment, plates were washed 5 times with 80 ul water on a Molecular Devices Aquamax DW4 plate washer. Solutions of the test compounds in 90% DMSO were added to each well on a Hamilton Microlab Star liquid handling station to 40 ul/well tissue culture medium and the total DMSO concentration was adjusted to 0.1%. Differentiated THP1 cells were then added in 40 ul/well to reach a final density of 5'000 cells/well in 80 ul culture medium. After 24 hours, IL-8 secretion was measured in the supernatant by the IL-8 HTRF assay following the protocol of the vendor (CisBio international).; type: cell-based, THP-1

T1 sequence (Q06187 whole entry): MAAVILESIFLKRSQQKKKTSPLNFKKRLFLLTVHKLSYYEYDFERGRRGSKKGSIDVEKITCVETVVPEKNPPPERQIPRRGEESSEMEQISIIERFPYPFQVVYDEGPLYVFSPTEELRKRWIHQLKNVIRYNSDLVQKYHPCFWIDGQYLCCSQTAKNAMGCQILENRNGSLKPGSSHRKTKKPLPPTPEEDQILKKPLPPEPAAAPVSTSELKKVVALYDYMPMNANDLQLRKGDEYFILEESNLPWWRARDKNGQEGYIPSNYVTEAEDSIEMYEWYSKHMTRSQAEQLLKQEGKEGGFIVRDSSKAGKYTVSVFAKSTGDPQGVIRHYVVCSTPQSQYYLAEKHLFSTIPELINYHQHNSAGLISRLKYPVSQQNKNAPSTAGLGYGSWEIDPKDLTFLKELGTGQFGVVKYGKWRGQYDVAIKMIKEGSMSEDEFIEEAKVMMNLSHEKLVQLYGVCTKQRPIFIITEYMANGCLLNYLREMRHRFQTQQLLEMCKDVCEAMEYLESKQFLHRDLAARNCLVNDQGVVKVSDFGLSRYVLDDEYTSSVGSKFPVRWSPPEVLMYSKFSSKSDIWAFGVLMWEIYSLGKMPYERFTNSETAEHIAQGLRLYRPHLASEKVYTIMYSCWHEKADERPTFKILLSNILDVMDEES

SMILES | IC50 [1] | IC50 [2]
C=C(C)c1ccc(C(=O)Nc2cc(F)cc(-c3ncnc4[nH]c(C5=CCN(C(=O)N(C)C)CC5)cc34)c2C)cc1 | 3 nM | 
Cc1c(NC(=O)c2ccc(C(C)(C)O)cc2F)cc(F)cc1-c1ncnc2[nH]c(C3=CCN(C(=O)N(C)C)CC3)cc12 | 13 nM | 
Cc1c(NC(=O)c2ccc(C3CC3)cc2)cc(F)cc1-c1ncnc2[nH]c(C3=CCN(C(=O)CC#N)CC3)cc12 | 4 nM | 
Cc1c(NC(=O)c2ccc(C(C)(C)C)cc2)cc(F)cc1-c1ncnc2[nH]c(C3=CCC4(CC3)OCCO4)cc12 | 110 nM | 
Cc1c(NC(=O)c2ccc(C(C)(C)C)cc2)cc(F)cc1-c1ncnc2[nH]c(C3=CCSCC3)cc12 | 23 nM | 94 nM
